Results: a melting point compilation (Tetko et al.; mined from patent text by program, amines drawn as free bases though some values may be those of a salt)

SMILES	melting point [°C]
O=C(NC1CCN(CCCOc2ccc3c4c(c(=O)oc3c2)CCC4)CC1)c1ccc([N+](=O)[O-])cc1	212 to 213
Cc1cccc2ncc(C(=O)NC(C)(C)C)c(=O)n12	164 to 166
O=C(c1ccc(-c2ncn[nH]2)cc1)N1Cc2cccn2Cc2ccccc21	225 to 227
CC(C)[C@H](NC(=O)[C@@H]1CCCN1C(=O)[C@@H](NC(=O)Cn1ccc(=O)n(CC(=O)O)c1=O)C(C)C)C(=O)c1nc2ccccc2o1	135 to 140
Cc1ccc(C2CC(n3ccnc3)c3ccccc3N2)cc1 (centres undefined)	152 to 154
CC(=O)N(CCCc1ccccc1)[C@H]1CC[C@H](c2ccc(OCc3ccccc3)cc2)CC1	80 to 81.5
O=C(Cc1cccnc1)[N+]1([O-])CCC(=C2c3ccc(Cl)cc3CCc3cccnc32)CC1 (centres undefined)	120 to 121
O=C(NCCO)c1cccc(-c2cccc3nc(Cc4cccc(C(F)(F)F)c4)sc23)c1	94 to 95
O=CN(O)C(CO)CS(=O)(=O)c1ccc(-c2ccc(Cl)cc2)cc1 (centres undefined)	153 to 154
CCOC(=O)C1=C(C)NC2=C(C(=O)OC2)C1c1ccccc1OC (centres undefined)	219 to 220
O=C(NCc1ccccc1)c1ccnc(NC(=O)c2cc(F)cc(F)c2)c1	185 to 187
CCOCc1nc2c(N)nc3ccccc3c2n1C[C@@H](O)CO	99 to 100
C=Cc1c(N)nc(-c2ccc(Cl)c(OC)c2F)nc1C(=O)O	167 to 168
CCc1cc(-c2nc3ccccc3s2)ccc1N	118 to 120
Nc1c(O)c(Br)cc(Br)c1C(=O)O	162 to 164
COC(=O)C(C)c1ccc(N2Cc3ccccc3C2=O)cc1 (centres undefined)	128
COC(=O)[C@H]1NC(=O)[C@H]1NC(=O)Cc1ccccc1 (relative stereo)	176 to 180
CCOC(=O)CSC1=CC(=NS(=O)(=O)c2cccs2)c2ccccc2C1=O	110 to 112
COCC(=O)OC(CC1CC1)c1ccc(Cl)c2nc3n(c12)CCCN3c1ccc(Cl)cc1Cl (centres undefined)	159 to 161
NC(=O)c1cncnc1	175 to 178
Cc1nc(-c2ccc(NC(=O)OCc3ccccc3)cc2)c[nH]c1=O	238 to 240
COc1ccc(S(=O)(=O)Nc2ccccc2Nc2ccccc2)cc1	140 to 142
Cc1ccccc1Nc1nc(N(C)c2ccccc2)c2cccc(OCCCN(C)C)c2n1	77 to 79
COc1ccc(C(CC(=O)Nc2ncccc2C)N2C(=O)c3ccccc3C2=O)cc1OC (centres undefined)	171 to 172
CCCCc1nc2c(C)c(Cl)cc(C(=O)O)c2n1Cc1ccc(C(=O)O)cc1	293 to 294

SMILES	melting point [°C]
CCOC(=O)C1=C(N)NC(N)=C(C(=O)OCC)C1c1ccccc1	139
CNC(=O)c1cc(Br)cc(C)c1N	133 to 135
COc1cc(OC)cc(-c2cc(=O)c3ccc(OCCCBr)cc3o2)c1	173 to 174
COc1ccc(C(=O)CCCCCBr)cc1Cl	104 to 106
CN1C(=O)CC[C@]2(C)c3ccc(-c4cccc(NC(=O)C(C)(C)C)c4)cc3CC[C@@H]12	95 to 98
Cc1c(F)c(F)c(CNc2ccc(Cl)c(O)c2)c(F)c1F	52
CC=CCn1c(Nc2cc(C)cc(C)c2)c(CC)c(=O)[nH]c1=O	190 to 192
CC1=C(c2ccncc2)CCC(=O)N1	175 to 177
O=C1SC(=O)C(F)=C1F	52 to 56
CCOC(=O)c1sc(NC(=O)c2ccc(C)cc2)nc1C(F)(F)C(F)(F)F	202 to 203
CC(=O)NCc1c(C)cc(CN2CCN(c3ccccc3)CC2)cc1C	159 to 160
CCCCCC(CC(=O)Nc1c(C(C)C)cccc1C(C)C)c1cccc2c1OCO2 (centres undefined)	114 to 115
CN1CCC(Oc2ccc(F)cc2C(N)=O)C1 (centres undefined)	90 to 93
CC(C)(CO)Nc1nc(SCc2cccc(F)c2F)nc2nc(N)sc12	231 to 234
CCOC(=O)c1ccc(OCCC2CCN(c3cc(Cl)nnc3Cl)CC2)cc1	153 to 155
Cc1cc(CCCCCOc2c(Cl)cc(-c3ccco3)cc2Cl)on1	29 to 30
O=C(Nc1ccc(C(F)(F)F)cc1)C(=O)N1CCC(Cc2ccc(F)cc2)CC1	109 to 111
OCC1OC(n2cnc3c(NCC4(c5cccc(Cl)c5)CCC4)ncnc32)C(O)C1O (centres undefined)	92 to 98
CC(C)Nc1nc2ccccc2n2c(C(F)(F)F)nnc12	185 to 187
CC(=Cc1ccc(OCCCN(C)C)cc1)C(=O)O	> 190
CC12CCC(=O)NC1=CCC1C2CCC2(C)C(=NN)CCC12 (centres undefined)	379 to 382
OC(C#Cc1ccncc1)c1ccccc1 (centres undefined)	93 to 96
CC1Cc2cc(N)ccc2C1=O (centres undefined)	151 to 152
C[C@H](NS(=O)(=O)c1ccc2ccccc2c1)C(=O)Cl	134 to 136
Cc1nc2c(C)cccn2c(=O)c1CCN1CC=C(c2c[nH]c3ccc(F)cc23)CC1	229 to 230

SMILES	melting point [°C]
O=C(Nc1nc[nH]n1)c1ccc(-c2ccc3nnn(Cc4ccc5ncccc5c4)c3n2)cc1Cl	286 to 288
CC(C)(C)[Si](C)(C)Oc1ccccc1-c1cc(-c2cccc([N+](=O)[O-])c2)c(C#N)c(NC(=O)c2cccs2)n1	106 to 108
Cc1c(NC(=O)c2ccc(CC(=O)c3ccccc3)cc2)ccc2cc(CN3CCCC3)cnc12	187
Cc1nc(-c2cc([N+](=O)[O-])ccc2F)cs1	160 to 162
Cc1ccccc1CCC(=O)N(C)C(C)C(O)c1ccccc1 (centres undefined)	136 to 137
COc1cc(-c2nc3ccc(OCCN(C)C)cc3n2Cc2ccccc2)cc(OC)c1OC	108
CC(=O)Nc1cccc(-c2nc3sccn3c2-c2ccnc(N[C@@H]3CCCN(S(=O)(=O)c4ccc(Cl)cc4)C3)n2)c1	169 to 174
CCCCC(CC)C(=O)Nc1ccc2ccn(Cc3ccc(C(=O)OC)cc3)c2c1 (centres undefined)	139 to 141
O=c1c(CCc2ccncc2)cc2cccnc2n1-c1cccc([N+](=O)[O-])c1	213 to 214
Cc1[nH]c(C(=O)NCc2ccc3c(c2)OCO3)c(C)c1-c1nc2ccc(C(=O)c3ccccc3)cc2[nH]1	165 to 167
OC(c1ccc(C(F)(F)F)cc1)c1ccc(C(F)(F)F)cc1	80
COc1ccc(-c2nc(SCCOCCn3ccnc3C)[nH]c2-c2ccc(OC)cc2)cc1	77 to 79
CCC(=O)NNC(=O)NCCOc1ccccc1	178 to 183
Nc1nc(O)ncc1-c1cccc(Cl)c1Cl	330 to 334
CCCCOCCCNc1ccc(-n2cc(C(F)(F)F)ccc2=O)c(Cl)c1	83 to 85
O=C(Cc1ccc(O)c2[nH]ncc12)NCc1ccccc1	188 to 190
COCn1ncc2cc(-c3nnc(SCc4cccc(C(F)(F)F)c4)o3)ccc21	159 to 160
CC(=O)OC1C(OC(=O)c2ccccc2)C(COC(=O)c2ccccc2)OC1n1cc(F)c(=O)[nH]c1=O (centres undefined)	96 to 98
CCc1c(-c2ccc(OCc3ccccc3)cc2)c2cc(COC)c3cccc1n32	111 to 113
NC(=O)c1c(F)ccc([N+](=O)[O-])c1F	134 to 135
CC(c1ccc(N2CCCC2)cc1)c1ccc(N2CCCC2)cc1	112
Cc1c(C(=O)c2ccccc2)cccc1[N+](=O)[O-]	42
CC(C)c1ccc2nc(C(F)(F)F)c(C(=O)O)c(O)c2c1	206
NC(=O)[C@H]1CN2C(=O)N(c3cc(Cl)cc(Cl)c3)C(=O)[C@]2(Cc2ccc(OC(F)(F)F)cc2)C1	123
CC(=O)C=Cc1ccc(C#N)cc1	103 to 106

SMILES	melting point [°C]
Cc1cc(C(=O)N2Cc3ccc(C(=O)C(Cl)(Cl)Cl)n3Cc3ccccc32)ccc1I	163
CCC1(CCCCN2CCN(c3ccc(Cl)cc3)CC2)C(=O)Nc2cc(F)ccc21 (centres undefined)	145 to 147
CN1C(=O)C2(CCN(CCCC(=O)c3ccc(F)cc3)CC2)c2ccccc21	95 to 96.5
O=C1c2ccccc2C(=O)c2c1oc1cc(O)ccc21	> 310
CNC(=S)N(Cc1cccnc1)N(C)C	101 to 102
Clc1ccc2nc(CBr)c(CBr)nc2c1	149 to 150
NS(=O)(=O)c1ccccc1SCC(F)F	111 to 112
CN(C)CC(=O)NCC#Cc1cnc2c(c1)N(Cc1c(Cl)cccc1Cl)CCN2	> 200
CC(c1ccccc1N1CCCCC1)C(C(N)=O)c1ccc(C(=O)N(C)C)cc1 (centres undefined)	148 to 150
CC(C(=O)O)c1cccc(C(=O)c2cc3cc(C(=O)O)sc3s2)c1 (centres undefined)	244
NC(=O)c1ccc(O[C@@H]2CNC[C@H]2O)cc1 (relative stereo)	202 to 203
Cc1ncc([N+](=O)[O-])n1CCn1c(=O)[nH]c2ccccc2c1=O	261 to 264
CC(=O)Oc1ccc(-c2c3ccccc3cc3sc(C)c(C)c23)cc1	147 to 150
CC(C#Cc1cccc(Oc2cccs2)c1)N(O)C(N)=O (centres undefined)	110 to 112
COC(=O)c1cc(-c2ccccc2)c(=O)n2c1-c1sccc1CN2C	180 to 181
COC(=O)c1c(C)c(O)cc(OC)c1Br	105 to 110
CC(C)(C)OC(=O)Nc1cnc(F)cc1C(=O)CC#N	106 to 115
COc1ccc(NC(=NC#N)NC(NC(=O)c2ccc(Cl)cc2)C(C)(Cl)Cl)c(OC)n1 (centres undefined)	162 to 163
CN(CCCNC(=O)COc1nc2ccccc2s1)Cc1ccc(Cl)c(Cl)c1	113 to 115
COC(=O)c1cc2ccc3c(c2c(-c2ccc4c(c2)OCO4)c1C(=O)OC)OCO3	157 to 159
O=c1oc2ccc(-c3ccc(F)cc3F)cc2c(=O)n1-c1cc(F)ccc1F	144 to 145
O=C(Nc1ccc(-n2nc(C3CC3)cc2C2CC2)cc1)c1cccc(F)c1F	135 to 142
O=C1C(=O)N2c3ccccc3Sc3cccc1c32	203 to 206
COc1ccc(C(O)CN)cc1OC (centres undefined)	80 to 81
